One data set concerns heparanase (HPSE). Kind of data set: In vitro β-D-glucuronidase activity assay (4-MUG substrate). The note with it: in vitro, FIG. 8.
Data set [1] relates to human lung microvascular endothelial cells (HLMVECs). The experiment in a line: In-vitro cellular toxicity test for HPSE inhibitor candidates. The note with it: HLMVECs, 24 hours. The procedure:
In-vitro cellular toxicity test for HPSE Inhibitor candidates: Human lung microvascular endothelial cells (HLMVECs) were obtained from the American Type Culture Collection (Rockville, MD, USA). Cells were cultured in a humidified incubator at 37° C. and 5% CO2 and grown in endothelial growth medium (EGM™-2 Endothelial Cell Growth Medium-2, Lonza, Basel, Switzerland) supplemented with 2% heat-inactivated fetal bovine serum and 0.04% hydrocortisone. Cell media was replaced every 48 hours, and the cells were split upon 80-90% confluence.
Final tested concentrations of HPSE inhibitors were calculated based upon repeatable in vitro dose-response studies. After 24 hours incubation, cell viability was confirmed by Trypan blue exclusion assay. Total mRNA was isolated using Trizol (Thermo Fisher Scientific Inc., Waltham, MA) and relative messenger RNA (mRNA) expression levels of hemeoxygenase-1 (HO-1), interleukin (IL)-6, tumor necrosis factor (TNF)-α, monocyte chemoattractant protein (MCP)-1, B-cell lymphoma 2 Associated X (Bax), B-cell lymphoma 2 (Bcl-2), B-cell lymphoma-extra-large (Bcl-xL) were quantified by SYBR Green 2-step, real-time, reverse transcription-polymerase chain reaction (RT-PCR). Relative gene expression levels were normalized to mRNA expression of glyceraldehyde-3-phosphate dehydrogenase (GAPDH) and compared to relative mRNA expression levels in control-treated HLMVEC.

The subject of data set [2] is HPSE1, MMP2, IL-6, IL-1β, TNF-α mRNA; IκB-α. Kind of data set: Real-time RT-PCR and western blotting in rat lung tissue after 4 hours of EVLP. The procedure: (§1) Graft tissues collected after 4 hours of EVLP and 2 hours after reperfusion were examined for relative mRNA expression levels of interleukin (IL)-6, IL-1, tumor necrosis factor (TNF)-α, and glyceraldehyde-3-phosphate dehydrogenase (GAPDH). Gene expression levels were normalized to GAPDH mRNA levels.
Western blotting: Total isolated proteins were extracted/resolved by 10% SDS-PAGE followed by transfer to 0.2 μm nitrocellulose membranes (Bio-Rad Laboratories, Hercules, CA, USA). Membranes were blocked with 5% non-fat milk at room temperature for 2 hours and then incubated overnight at 4° C. with the following primary antibodies: inhibitor of KB-α (IκB-α; #9242, Cell Signaling Technology, Inc., Danvers, MA) and β-actin (#A1978, Millipore-Sigma). Membranes were then incubated with either goat anti-mouse IgG (H+L) (#31430, Thermo Fisher Scientific Inc.; 1:5000) or goat anti-rabbit IgG (H+L) (#31460, Thermo Fisher Scientific Inc.; 1:3000) horseradish peroxidase-conjugated polyclonal secondary antibodies at room temperature for 2 hours. Proteins were visualized using an enhanced chemiluminescence kit (Abcam), and protein bands were imaged and analyzed using Image Lab software (Version 6.0; Bio-Rad Laboratories, Inc., Hercules, CA). The intensities of protein bands were quantitated by Image J software (National Institutes of Health, Bethesda, MD).
A general note: Quantitative PCR measures a nucleic acid by following its amplification.

Data set [3] concerns glycosaminoglycans (GAGs), syndecan-1. The experiment in a line: Glycocalyx shedding in rat lungs during EVLP (GAGs, syndecan-1 ELISA, immunofluorescence). As to the method:
Syndecan-1 ELISA: Syndecan-1 concentrations in EVLP perfusate were quantitated using ELISA (Immunotag™ Rat Syndecan-1 ELISA, G-Biosciences, Geno Technology, Inc., St. Louis, MO). ELISA was performed according to the manufacturer's instructions using perfusate samples acquired after 4 hours of EVLP.
Determination of glycosaminoglycans (GAGS): The concentration of GAGs in rat EVLP perfusate at 4 hours was quantitated using 1,9-dimethylmethylene blue (DMMB, Millipore Sigma). The DMMB solution (pH˜3.0) was prepared by dissolving 16 mg/I DMMB in distilled H2O containing 3.04 g/I glycine, 1.6 g/l NaCl and 95 ml 0.1 M acetic acid. Briefly, 1 ml DMMB solution was mixed with 100 μl EVLP perfusate then incubated for 18 h at room temperature. The tubes were then centrifuged at 14,000 rpm for 20 min at 4° C. Supernatants were carefully decanted, 100 μl dissolvent buffer (4 M guanidine hydrochloride, 50 mM sodium acetate, 10% propan-1-ol, pH 6.8) was added to each pellet, and the tubes were incubated at 40° C. and vortexed until GAG-DMMB pellets were completely dissolved. GAG content in each sample was measured spectrophotometrically at 656 nm.
(§2) Tissue staining and histopathological analysis: Formalin-fixed, paraffin-embedded lung tissues collected 2 hours after transplantation were sectioned to 4 μm thickness and stained with hematoxylin and eosin. In parallel, sections of tissue collected after 4 hours of EVLP were stained for immunofluorescence imaging using primary antibodies for syndecan-1 (DL-101) (#sc-12765, Santa Cruz) and caveolin-1 (#3238, Cell Signaling Technology, Danvers, MA) and with Hoechst 33342 dye (Thermo Scientific). Donkey Cy3-conjugated anti-mouse IgG (#AP192C, MilliporeSigma, Burlington, MA) and Cy5-conjugated goat anti-rabbit IgG (#A10523, Thermo Scientific) secondary antibodies were used to detect primary antibodies. Stained slides were scanned with a whole-slide image scanner (Axio Scan.Z1; Carl Zeiss AB, Oberkochen, Germany) and analyzed with digital image processing software (ZEN lite blue edition; Carl Zeiss).
For orientation: In an ELISA, binding on a coated surface is turned into a signal by an enzyme label.

Another data set concerns rat lung grafts. Kind of data set: Rat orthotopic left lung transplantation following EVLP. The class given is in vivo. As to the method:
Rat orthotopic left lung transplantation following EVLP: Orthotopic, single-lung transplantation of the left lung was performed using the 3-cuff method. After EVLP for 4 hours, the lungs were cooled with 4° C. Perfadex on the EVLP system and stored at 4° C. for 1 hour prior to transplantation. The recipient animals were sacrificed 2 hours after reperfusion. When analyzing graft function, the native lung was clamped, 100% 02 was administered for 5 minutes through a ventilator, and the recipient's blood was sampled from the graft pulmonary vein for blood gas analysis.
as §1, §2

A further data set concerns rat lungs. Kind of data set: Rat EVLP for 4 hours with HPSE inhibitors in the perfusate: physiology, endothelial barrier, edema. The settings on record: heparin 1000-U/hour or SF4 1 μM in perfusate.
[4] abbreviates: 100 nM SF4, 250 mM amodiaquine, 250 mM triazolothiadiazoles.
Setting [5] is: 2 hours after transplant, vs untreated control and heparin-pretreated lungs.

Method for heparanase (HPSE): In vitro β-D-glucuronidase activity assay Heparanase activity was measured via β-Glucuronidase activity assay using 4-methylumbelliferyl-β-D-glucuronide (4-MUG) substrate (Millipore-Sigma). As a source of enzymes, platelet rich plasma (PRP) obtained from rat whole blood or rat lung whole tissue lysate, was used. […] Fluorescence (λex 360 nm/λem 460 nm) was continuously measured for 60 minutes using a fluorescence microplate reader (BioTech Synergy HTX, Agilent Technologies, Santa Clara, CA).

In the case of `O=C(O)Cc1ccc2oc(-c3ccc(NC(=O)/C=C/c4ccc(Br)cc4)c(F)c3)nc2c1` [OGT-2113], the “β-D-glucuronidase activity, dose response” value with heparanase (HPSE) is given as “dose-dependent”.
`CCN(CC)Cc1cc(Nc2ccnc3cc(Cl)ccc23)ccc1O` [Amodiaquine, amodiaquine]: the “Relative mRNA expression (compared to control) Bax” value in data set [1] (100 nM SF4) is on record as 0.71. For the same compound, in data set [1] (setting [4]), the “Relative mRNA expression (compared to control) Bcl-xl” value amounted to 1.30, the “Relative mRNA expression (compared to control) HO-1” value is 2.94, the “Relative mRNA expression (compared to control) IL6” value is given as 13.55 and the “Relative mRNA expression (compared to control) MCP1” value came to 3.45. Moreover, the “β-D-glucuronidase activity, dose response” value in the data set on heparanase (HPSE) was “dose-dependent”.
`Cl.O=C(O)[C@H]1CN[C@H](NC(=O)C(F)(F)F)[C@@H](O)[C@H]1O` [SF4, (3S,4S,5R,6R)-4,5-dihydroxy-6-[(2,2,2-trifluoroacetyl)amino]piperidine-3-carboxylic acid]: in data set [2] (lung tissue after 4-hours EVLP), the “IL-1β mRNA expression” value is recorded as “significantly downregulated”, the “IL-6 mRNA expression” value is listed as “significantly downregulated” and the “TNF-α mRNA expression” value is given as “significantly downregulated”. In addition, the “IκB-α expression (western blot)” value in data set [2] (lung tissue after 4-hours EVLP, vs control and heparin groups) is reported as “significantly stabilized”. The “HPSE1 mRNA expression” value in data set [2] (lung tissue after 4 hours of EVLP, vs sham) is “not altered”. The “syndecan-1 immunofluorescent staining of lung endothelial lumen” value in data set [3] (after 4-hours EVLP, vs controls and heparin-treated) was “significantly increased staining”. In addition, in data set [3] (after 4 hours EVLP, SF4 vs heparin-treated, heparin vs controls), the “syndecan-1 concentration in EVLP perfusate” value was “significantly lower”. Also, in data set [3] (at 4-hours EVLP, vs controls), the “GAGs content in EVLP perfusate” value is “significantly reduced”. Further, the “H&E histology of grafts” value with rat lung grafts (2 hours after transplant following 4 hours of EVLP) was “reduced swollen alveolar walls, congestion in the blood vessels, and fluid leaks”. Also, in the data set on rat lung grafts (setting [5]), the “IL-1β mRNA expression” value is recorded as “significantly lower”, the “IL-6 mRNA expression” value was “significantly lower” and the “TNF-α mRNA expression” value is reported as “significantly lower”. In addition, the “dynamic lung compliance (Cdyn) during EVLP” value with rat lungs (4-hour EVLP, vs control) is on record as “neither heparin nor SF4 altered Cdyn”. Also, in the data set on rat lungs (after 4-hours EVLP), the “Evans blue dye (EBD) accumulation in lung tissue” value is on record as “markedly decreased”.

The values are drawn from US20250204515A1, “Heparanase Inhibition for Graft Protection” (University of Pittsburgh - Of the Commonwealth System of …, priority 2022, published 2025).
